Laboratory results as given in US20210247386A1, “A DEVICE AND METHOD FOR DETERMINING CELL INDENTATION ACTIVITY” (TECHNION RESEARCH & DEVELOPMENT FOUNDATION LIMITED, priority 2018, published 2021).
“Also recorded” adds a separate entry of the source.

What was measured:
[1] = test system: breast cancer cell lines; test: Gel indentation assay of breast cancer cell lines on PAM gel after Taxol treatment; type: cell-based, human; settings: Taxol 25 μM for 1-2 hr, PAM gel with Young's modulus 2.4 kPa, versus untreated cells
Source text: (§1) The inventors used various commercially- or otherwise-available, human, epithelial breast and pancreatic cancer and benign cell lines (all from ATCC, Manassas, Va.). For breast cancer cells, the inventors used three cell lines: high metastatic potential (MP, MDA-MB-231) and low MP (MDA-MB-468) breast cancer cells that had been collected from lung metastases, and benign fibrocystic cells (MCF-10A) as control. In addition, the inventors used a high MP breast cancer LM2-4 cell-line that was developed by collecting twice metastasized cells from the human MDA-MB-231 cell line after being seeded in mice. […]
(§2) The inventors seeded 3×10^5 cells on each gel within the respective media, resulting in an average of 25±5 cells per field-of-view (area of 0.016 mm^2). […] The focal depth of each image was recorded independently during the experiment, following manual focusing, using an automated, computer-controlled microscope stage. […]
(§3) At each measurement time-point, locations on the gel were randomly chosen and at least 3 images were taken: (i) a DIC image of the cells on the gel, (ii) a fluorescence image of the particles embedded at the focal plane of the gel surface, and (iii) a series of fluorescence images at the lowest focal depth where particles were observed, to identify each indenting cells' depth. […]

[2] = test system: pancreatic cancer cell lines; test: Gel indentation assay of pancreatic cancer cell lines on PAM gel after Taxol treatment; type: cell-based, human; settings: Taxol 25 μM for 1-2 hr, PAM gel with Young's modulus 2.4 kPa, versus untreated cells
Source text: as §1, §2, §3

CC(=O)O[C@H]1C(=O)[C@@]2(C)[C@H]([C@H](OC(=O)c3ccccc3)[C@]3(O)C[C@H](OC(=O)[C@H](O)[C@@H](NC(=O)c4ccccc4)c4ccccc4)C(C)=C1C3(C)C)[C@]1(OC(C)=O)CO[C@@H]1C[C@@H]2O [Taxol, Paclitaxel]
reduction; also recorded: reduced: attained indentation depths [1] | percentage of indenting cells [1] | attained indentation depths [2] | percentage of indenting cells [2]
